Experimental data published in US12137691B2, “Method for treating plant seed” (RIJK ZWAAN ZAADTEELT EN ZAADHANDEL B.V., priority 2018, dated 2024).

Experiments:
[1] = tested on: Rhizoctonia isolate AU 14/243; assay: In vitro growth inhibition on PDA agar plates with imbedded coated spinach seeds, Rhizoctonia; type: cell-based
Description: FIG. 4A is a schematic picture of an with Rhizoctonia-infected agar plate (1) comprising untreated seeds (2) and seeds coated with 500 μg/seed Fe(II)SO4 (3). Plates were inoculated with Rhizoctonia in the center of the plates (4). The growth of Rhizoctonia was measured after 1 day, 2 days, and 4 days post-inoculation (dpi).
(§1) PDA agar plates were prepared in which spinach seeds of the variety Platypus coated with 250 μg Fe(II)SO4 per seed and 1.1 Meq. vitamin C, 500 μg Fe(II)SO4 per seed and 1.1 Meq. vitamin C, or 500 μg Fe(II)SO4 per seed, were imbedded and inoculated with Rhizoctonia isolate AU 14/243 or Fusarium oxysporum isolate MAFF103063.

[2] = tested on: fungal growth; assay: Reducing fungal growth on plant seedlings and plants (general statement); type: in vivo; settings: general statement in the description, no test details
[3] = tested on: Fusarium oxysporum isolate MAFF103063; assay: In vitro growth inhibition on PDA agar plates with imbedded coated spinach seeds, Fusarium; type: cell-based
Description: FIG. 4B is a schematic picture of an with Fusarium-infected agar plate (1) comprising untreated seeds (2) and seeds coated with 500 μg/seed Fe(II)SO4 (3). The growth of Fusarium was measured after 2 days, 4 days, and 7 days post-inoculation (dpi).
as §1

[4] = tested on: P. irregulare; assay: Cornsalad seed sown in soil inoculated with P. irregulare, healthy seedlings; type: in vivo, Pythium irregulare; settings: 500 μg Fe(II)SO4 per seed, no vitamin C, 7, 11, 17 and 24 days after sowing
Description: FIG. 7B is a graph showing the effect of hot water treatment of cornsalad seeds, and subsequent treatment with 500 μg/seed of Fe(II)SO4. The effect is expressed in the percentage of seedlings that are still alive and healthy 7, 11, 17 and 24 days after sowing in soil inoculated with P. irregulare.
The experiment was also performed on the cornsalad seed when sown in soil inoculated with P. irregulare, prepared as described in Example 2. The percentage of healthy seedlings was determined 7, 11, 17 and 24 days after sowing.

[5] = tested on: damping-off; assay: Cornsalad seed sown in soil from a field known to suffer from damping-off, healthy seedlings; type: in vivo; settings: 500 μg Fe(II)SO4 per seed, no vitamin C, 7, 11, 17 and 24 days after sowing
Description: FIG. 7A is a graph showing the effect of hot water treatment of cornsalad seeds, and subsequent treatment with 500 μg/seed of Fe(II)SO4. The effect is expressed in the percentage of seedlings that are still alive and healthy 7, 11, 17 and 24 days after sowing in soil known to suffer from damping-off.
Cornsalad seed was coated with 500 μg/Fe(II)SO4 per seed as described in Example 1, except that no vitamin C was added. The seed was sown in soil from a field known to suffer from damping-off. The percentage of healthy seedlings was determined 7, 11, 17 and 24 days after sowing.

[6] = tested on: Pythium irregulare isolate 779-2010; assay: Germination of hot water treated spinach seed and survival of seedlings in soil inoculated with Pythium irregulare; type: in vivo; settings: for effect on the health of the growing plants: coating with only vitamin C (175 or 350 μg per seed)
Description: A solution of an iron salt, such as for instance Fe(II)SO4, and vitamin C in water is prepared by stirring of the chemicals until a clear, colorless solution is obtained.
A rotary coater is charged with seeds and the iron salt with vitamin C solution is added to the seeds via a spinning disk.
The seeds are dried after coating at 25° C./35 RH until the moisture in the seed is equal to the moisture of the seed before treatment with the iron salt solution.
The effect of the iron salt solution prepared in Example 1 on both germination and survival against Pythium is investigated on hot water treated spinach seeds of the variety Mandril. A suitable protocol for the hot water treatment is described in Extension Factsheet Ohio State University; Sally A. Miller and Melanie L Lewis Ivey; “Hot Water Treatment of Vegetable Seeds to Eradicate Bacterial Plant Pathogens in Organic Production Systems”.
The hot water treated spinach seeds were coated with an Fe(II)SO4 coating supplemented with vitamin C. Two different concentrations of Fe(II)SO4 and vitamin C in the coating solution were used: 1 μg Fe(II)SO4 per seed and 1.1 molar equivalents (Meq.) vitamin C, and 250 μg Fe(II)SO4 per seed and 1.1 Meq. vitamin C. As a control, hot water treated seeds without coating and untreated seeds were used.
Seeds were sown in trays. Germination of the seeds was assessed in trays without any inoculum. The effect of the coating on the survival of seedlings was assessed in trays inoculated with Pythium irregulare isolate 779-2010.
(§2) Trays without the inoculum were prepared by mixing+/−10 L of sowing soil with 1 L of tap water in white trays. In total, 117 sowing holes were made in the trays with a press. To prevent any interaction between treatments, only 1 treatment per tray was sown. For each treatment, 3 replicates of 117 seeds were sown. The seeds were topped with two cups (diameter 12 cm) of sowing soil containing 5 grams of inoculum media. Trays were placed in a controlled climate cell at 20° C., LID->14/10 and a RH of 60%. The number of germinated seeds was counted at 7 days, and the amount of surviving seedlings was counted 7 and 14 days after sowing and inoculation. Trays were physically separated from trays containing Pythium inoculum, to prevent cross-contamination.
The inoculum was prepared by growing Pythium irregulare on fresh V8 plates for 3 days at 28° C. After incubation, the spores and mycelium were harvested by adding 20 ml of sterile PBS to the plate and scraping it with a sterile spatula. This inoculum was added to the sowing soil.
as §2, with “with” for “without the”, “treatment 3,” for “treatment, 3”, “(mixed thoroughly in a bucket before topping off).” for “media.”, “inoculation.” for “inoculation. Trays were physically separated from trays containing Pythium inoculum, to prevent cross-contamination.”
The experiment of Example 2 was repeated with the following modifications:
the spinach seed used are of the varieties Platypus and Meerkat […]

[7] = tested on: damping-off; assay: Beetroot seed sown in a field known to suffer from damping-off, healthy seedlings; type: in vivo; settings: beetroot variety Zeppo, 500 μg Fe(II)SO4 per seed, no vitamin C, 14 and 21 days after sowing
Description: FIG. 6 is a graph showing the effect of treatment of seeds of the beetroot variety Zeppo with 500 μg/seed of Fe(II)SO4. The effect is expressed in the number of seedlings that are still alive and healthy 14 and 21 days after sowing.
Seed of the beetroot variety Zeppo was coated with 500 μg/Fe(II)SO4 per seed as described in Example 1, except that no vitamin C was added. The seed was sown in a field known to suffer from damping-off. The number of healthy seedlings was determined 14 days and 21 days after sowing.

[8] = 4 days post inoculation, 250 μg Fe(II)SO4 per seed and 1.1 Meq. vitamin C, or 500 μg Fe(II)SO4 per seed alone
[9] = Platypus seed, 250 μg Fe(II)SO4 per seed and 1.1 Meq. vitamin C, or 500 μg Fe(II)SO4 per seed alone

In the case of `O=S(=O)([O-])[O-].[Fe+2]` [Fe(II)SO4, iron(II)sulfate], the “growth of the Rhizoctonia isolate over the plate” value [1, 8] was “the isolate covered the whole plate”, the “inhibition of Rhizoctonia growth (weaker when compared to 500 μg Fe(II)SO4 and vitamin C)” value [1, 9] was “Inhibition was also observed” and the “zone of inhibition around the coated seeds, Rhizoctonia” value ([1]; after 4 days post-inoculation, 500 μg/seed Fe(II)SO4, not around untreated seeds) was “zone of inhibition (5) is still visible”. For the same compound, the “effects in reducing fungal growth on the plant seedlings and plants” value (“effects in reducing fungal growth” below) [2] was “good effects”, the “growth of the Fusarium isolate over the plate” value [3, 8] was “the isolate covered the whole plate” and the “inhibition of Fusarium growth (weaker when compared to 500 μg Fe(II)SO4 and vitamin C)” value [3, 9] was “Inhibition was also observed”. The “zone of inhibition around the coated seeds, Fusarium” value ([3]; after 7 days post-inoculation, 500 μg/seed Fe(II)SO4, not around untreated seeds) was “zone of inhibition (5) is still visible”, the “protection of cornsalad against damping-off (healthy seedlings)” value [4] was “protects cornsalad against damping-off” and the “protection of cornsalad against damping-off (healthy seedlings)” value [5] was “protects cornsalad against damping-off”. For the same compound, the “dose-effect response (seedlings alive and healthy 14 days after sowing)” value ([6]; spinach varieties Finwhale and Mandril, hot water treated, 50, 100, 150, 200 and 250 μg Fe(II)SO4 per seed) was “linear dose-effect response”, the “doses effective to increase the germination and survival of hot-water treated seed” value ([6]; spinach varieties Finwhale and Mandril, dose per seed, dose to match untreated seeds depends on variety and/or batch) was ≥ 50 µg and the “effect on the health of the plants” value ([6]; spinach varieties Platypus and Meerkat, hot water treated, 250 or 500 μg Fe(II)SO4 per seed, with or without 1.1 Meq. vitamin C) was “positive effect”. The “protection of beetroot against damping-off (healthy seedlings)” value [7] was “protects beetroot against damping-off”.
With `[Br-].[Br-].[Fe+2]` [Iron(II)bromide] the “effects in reducing fungal growth” value [2] was “good effects”.
For `O=S(=O)([O-])[O-].O=S(=O)([O-])[O-].[Fe+2].[NH4+].[NH4+]` [iron(II)ammonium sulfate], the “effects in reducing fungal growth” value [2] was “good effects”.
With `[Cl][Fe][Cl]` [iron(II)chloride] the “effects in reducing fungal growth” value [2] was “good effects”.
In the case of `O=S(=O)([O-])[O-].O=S(=O)([O-])[O-].[Fe+3].[NH4+]` [iron(III)ammonium sulfate], the “effects in reducing fungal growth” value [2] was “good effects”.
For `[Br-].[Br-].[Br-].[Fe+3]` [iron(III)bromide], the “effects in reducing fungal growth” value [2] was “good effects”.
With `[Cl][Fe]([Cl])[Cl]` [iron(III)chloride] the “effects in reducing fungal growth” value [2] was “good effects”.
For `O=S(=O)([O-])[O-].O=S(=O)([O-])[O-].O=S(=O)([O-])[O-].[Fe+3].[Fe+3]` [iron(III)sulfate], the “effects in reducing fungal growth” value [2] was “good effects”.
With `O=C1O[C@H]([C@@H](O)CO)C(O)=C1O` [vitamin C, reference compound] the “effect on the health of the growing plants” value ([6]; spinach variety Meerkat, hot water treated) was “not observed” and the “effect on the health of the growing plants” value ([6]; spinach variety Platypus, hot water treated) was “some effect”.
